Where “and” joins values, the source holds several entries; their conditions need not be identical. Identical values can stand only once.
Assays:
Sm.TRPMPZQ = Sm.TRPMPZQ (Schistosoma mansoni, UniProt A0A5K4F0X5); assay: cell-based; format: cell-based; conditions: for this work: EC50 (μM) Sm.TRPMPZQ / EC50: HEK293 transient expression, mean ± SEM, n ≥ 3 independent transfections; for EC50: read-out: this work: EC50 (μM) Sm.TRPMPZQ
Procedure: (§1) This was done using a fluorescence-based reporter assay to measure changes in cytosolic Ca^2+ in HEK293 cells transiently expressing the individual TRPMPZQ ion channels.
(§2) Sprague et. al. Supporting Information
(§3) Cell Culture and transfection. Activation of the three TRPMPZQ orthologs1 (Sm.TRPMPZQ, Eg.TRPMPZQ and Mc.TRPMPZQ) was measured using a Ca2+ reporter assay, following transient transfection of codon-optimized constructs (Genscript) into HEK293 cells.
(§4) The HEK293 cell line (ATCC CRL-1573.3) was authenticated by STR profiling (ATCC), and cells were evaluated for mycoplasma contamination by monthly scheduled testing (LookOut® Mycoplasma PCR Detection Kit, Sigma). HEK293 cells were cultured at 37 °C in a humidified incubator in Dulbecco’s Modified Eagle Medium (DMEM) supplemented with 10% fetal bovine serum (FBS), penicillin (100 units/mL), streptomycin (100 μg/mL), and L-glutamine (290 μg/mL). Cells were transfected using Lipofectamine-2000 at a density of 3x10^6 cells per petri dish (100 mm diameter) 24 h prior to replating into 384 well plates for functional assays.
(§5) Ca2+ imaging assays. Ca2+ imaging assays were performed using a Fluorescence Imaging Plate Reader (FLIPR TETRA, Molecular Devices). HEK293 cells (naïve or transfected) were seeded (20,000 cells/well) in a black-walled clear-bottomed poly-d-lysine coated 384-well plate (Greiner Bio-One) in DMEM growth media supplemented with 10% FBS. After 24 h, growth medium was removed, and cells were loaded with a fluorescent Ca2+ indicator (Fluo-4 NW dye, Invitrogen) by incubation (20 µL per well, 1 h at 37°C) in Hanks' balanced salt solution (HBSS) assay buffer containing probenecid (2.5 mM) and HEPES (20 mM). Drug dilutions were prepared in assay buffer, without probenecid and dye, in ‘V’-shape 384-well plates (Greiner Bio-one, Germany). After indicator loading, the Ca2+ assay was performed at room temperature. Basal fluorescence was monitored for 20 s, then 5 μL of each drug added, and the signal (raw fluorescence units) was monitored over an additional 250 s. Changes in fluorescence were calculated by subtracting the average basal fluorescence (averaged values between 0 to 20 s) from the maximum fluorescence value. These values were normalized to the response of (±)-PZQ at the corresponding TRPMPZQ channel and plotted. Concentration-response curves were generated in GraphPad Prism (v.
(§6) 9.5.1) using the default three -parameter curve fitting and constraining the bottom of the curve to 0%. The reported EC 50 values represent the mean ± SEM of n ≥ 3 independent transfections. […]

[1] = system: E. multilocularis protoscoleces; assay: Cestode motility assay on protoscoleces; format: cell-based, Echinococcus multilocularis; conditions: for IC50: Echinococcus multilocularis
Procedure: To determine IC50 values, concentration–response curves were obtained at multiple time points (Figure 2E–G).
Figure 2 E. multilocularis protoscoleces after treatment with (A) DMSO, (B) (±)-PZQ (1 μM), (C) (R)-2 (30 μM), and (D) (S)-2 (100 μM). (E–G) Concentration–response motility graphs of E. multilocularis protosoleces after treatment with (±)-PZQ (blue circles), (R)-2 (red circles), and (S)-2 (purple circles) after (E) 0.5 h, (F) 12 h, and (G) 24 h. Data are plotted as % motility vs vehicle (DMSO) control (mean ± SEM). […]
Cestode motility assays . Protoscoleces of E. multilocularis strain MB17 were isolated from metacestode material grown in experimentally infected gerbils (kindly provided by Prof. Dr. K. Brehm, University of Würzburg, Germany). Extraction and acti vation of protoscoleces, as well as subsequent motility assays were performed as described previously. 2 In short, protoscoleces were activated by 10% DMSO for 3 h at 37°C, in a humid atmosphere, with 5% CO 2 and left to recover overnight in DMEM (Biochrom, Berlin, Germany) supplemented with 10% FBS (Biochrom) at 37°C, in a humid atmosphere, with 5% CO 2. The next day, 25 protoscoleces were distributed into individual wells of a white, flat -bottom 384 well plate (Huberlab, Aesch, Switzerland). PZQ analogs were added […]
The assay plate was sealed with a clear view seal foil (Huberlab), and motility was measured in a live cell imaging system (Nikon TE2000E, Hamatsu ORCA ER

S. mansoni [2] = conditions: ref [1]; cited from earlier work
S. mansoni [3] = system: S. mansoni; design: key: “+++” indicates a complete reduction of worms at 50 mg/kg dosing (×5); “++” indicates complete reduction of worms at 500 mg/kg dosing (×5); “+” indicates less than 90% worm reduction at 500 mg/kg dosing (×5); “0” indicates no effect at 500 mg/kg dosing (×5); conditions: mouse model, dosing ×5; ref [1]; cited from earlier work
H. nana = system: H. nana; design: key: “+++” indicates a complete reduction of worms at 25 mg/kg dosing (×1); “++” indicates complete reduction of worms at 500 mg/kg dosing (×1); “+” indicates less than 90% worm reduction at 500 mg/kg dosing (×1); “0” indicates no effect at 500 mg/kg dosing (×1); conditions: mouse model, dosing ×1; ref [1]; cited from earlier work
Eg.TRPMPZQ = Eg.TRPMPZQ (Echinococcus granulosus, UniProt W6UVV9); format: cell-based; conditions: Eg.TRPMPZQ and Mc.TRPMPZQ; for activity at cestode TRPMPZQ orthologs (in words): both cestode channels
Eg.TRPMPZQ, sequence (W6UVV9 entry or part of it): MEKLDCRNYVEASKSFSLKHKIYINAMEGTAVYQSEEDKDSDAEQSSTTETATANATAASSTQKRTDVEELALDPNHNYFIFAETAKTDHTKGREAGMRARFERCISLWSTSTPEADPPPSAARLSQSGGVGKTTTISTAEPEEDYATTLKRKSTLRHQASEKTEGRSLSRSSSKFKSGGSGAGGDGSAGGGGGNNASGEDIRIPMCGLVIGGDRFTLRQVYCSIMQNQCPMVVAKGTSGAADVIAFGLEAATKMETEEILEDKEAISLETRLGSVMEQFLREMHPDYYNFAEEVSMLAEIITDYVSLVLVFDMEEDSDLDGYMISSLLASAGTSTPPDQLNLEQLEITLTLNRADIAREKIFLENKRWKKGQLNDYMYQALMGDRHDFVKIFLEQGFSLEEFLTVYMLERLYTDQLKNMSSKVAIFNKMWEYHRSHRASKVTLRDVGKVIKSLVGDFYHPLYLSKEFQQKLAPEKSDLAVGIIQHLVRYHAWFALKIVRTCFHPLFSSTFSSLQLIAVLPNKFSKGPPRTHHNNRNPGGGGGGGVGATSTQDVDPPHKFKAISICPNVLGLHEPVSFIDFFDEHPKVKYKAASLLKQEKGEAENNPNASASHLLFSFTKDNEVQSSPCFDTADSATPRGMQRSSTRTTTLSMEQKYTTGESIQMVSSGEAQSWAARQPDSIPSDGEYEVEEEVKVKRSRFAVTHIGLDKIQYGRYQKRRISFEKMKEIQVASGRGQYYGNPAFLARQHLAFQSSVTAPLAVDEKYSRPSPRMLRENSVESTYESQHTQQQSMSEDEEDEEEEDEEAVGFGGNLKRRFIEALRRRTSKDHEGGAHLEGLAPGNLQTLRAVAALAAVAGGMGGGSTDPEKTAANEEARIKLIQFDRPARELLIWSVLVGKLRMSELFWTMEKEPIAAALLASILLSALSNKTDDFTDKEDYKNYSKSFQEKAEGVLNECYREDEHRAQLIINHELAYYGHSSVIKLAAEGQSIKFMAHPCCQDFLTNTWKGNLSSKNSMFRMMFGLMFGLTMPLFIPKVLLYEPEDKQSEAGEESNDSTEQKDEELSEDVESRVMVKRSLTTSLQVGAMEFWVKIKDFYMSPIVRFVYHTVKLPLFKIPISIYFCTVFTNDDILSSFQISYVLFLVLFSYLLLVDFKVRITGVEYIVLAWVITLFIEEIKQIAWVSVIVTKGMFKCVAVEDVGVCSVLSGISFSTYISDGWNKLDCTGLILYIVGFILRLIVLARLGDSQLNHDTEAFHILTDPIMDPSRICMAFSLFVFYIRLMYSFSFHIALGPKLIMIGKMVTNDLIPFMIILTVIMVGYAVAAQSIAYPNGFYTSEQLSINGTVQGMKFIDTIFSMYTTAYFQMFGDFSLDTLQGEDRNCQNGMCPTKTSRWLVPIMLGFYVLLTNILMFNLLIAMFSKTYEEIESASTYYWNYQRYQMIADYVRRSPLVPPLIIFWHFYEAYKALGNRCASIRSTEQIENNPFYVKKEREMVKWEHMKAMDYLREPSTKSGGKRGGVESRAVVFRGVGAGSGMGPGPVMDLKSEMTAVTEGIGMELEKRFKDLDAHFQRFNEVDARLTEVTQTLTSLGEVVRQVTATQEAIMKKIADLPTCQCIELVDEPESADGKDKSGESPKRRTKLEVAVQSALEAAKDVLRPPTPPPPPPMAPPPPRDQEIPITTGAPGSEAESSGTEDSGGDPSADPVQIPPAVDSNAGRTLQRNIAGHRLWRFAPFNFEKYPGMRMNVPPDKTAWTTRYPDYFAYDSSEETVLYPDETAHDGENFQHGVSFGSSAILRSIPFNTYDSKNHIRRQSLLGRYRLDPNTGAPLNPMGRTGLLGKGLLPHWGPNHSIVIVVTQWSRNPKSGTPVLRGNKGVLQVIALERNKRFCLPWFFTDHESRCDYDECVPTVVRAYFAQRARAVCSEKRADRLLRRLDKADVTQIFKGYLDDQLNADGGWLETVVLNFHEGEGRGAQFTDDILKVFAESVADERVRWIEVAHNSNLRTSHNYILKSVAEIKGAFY
Procedure: as §1, §2, §3, §4, §5, §6

Sm.TRPMPZQ, sequence (A0A5K4F0X5 entry or part of it): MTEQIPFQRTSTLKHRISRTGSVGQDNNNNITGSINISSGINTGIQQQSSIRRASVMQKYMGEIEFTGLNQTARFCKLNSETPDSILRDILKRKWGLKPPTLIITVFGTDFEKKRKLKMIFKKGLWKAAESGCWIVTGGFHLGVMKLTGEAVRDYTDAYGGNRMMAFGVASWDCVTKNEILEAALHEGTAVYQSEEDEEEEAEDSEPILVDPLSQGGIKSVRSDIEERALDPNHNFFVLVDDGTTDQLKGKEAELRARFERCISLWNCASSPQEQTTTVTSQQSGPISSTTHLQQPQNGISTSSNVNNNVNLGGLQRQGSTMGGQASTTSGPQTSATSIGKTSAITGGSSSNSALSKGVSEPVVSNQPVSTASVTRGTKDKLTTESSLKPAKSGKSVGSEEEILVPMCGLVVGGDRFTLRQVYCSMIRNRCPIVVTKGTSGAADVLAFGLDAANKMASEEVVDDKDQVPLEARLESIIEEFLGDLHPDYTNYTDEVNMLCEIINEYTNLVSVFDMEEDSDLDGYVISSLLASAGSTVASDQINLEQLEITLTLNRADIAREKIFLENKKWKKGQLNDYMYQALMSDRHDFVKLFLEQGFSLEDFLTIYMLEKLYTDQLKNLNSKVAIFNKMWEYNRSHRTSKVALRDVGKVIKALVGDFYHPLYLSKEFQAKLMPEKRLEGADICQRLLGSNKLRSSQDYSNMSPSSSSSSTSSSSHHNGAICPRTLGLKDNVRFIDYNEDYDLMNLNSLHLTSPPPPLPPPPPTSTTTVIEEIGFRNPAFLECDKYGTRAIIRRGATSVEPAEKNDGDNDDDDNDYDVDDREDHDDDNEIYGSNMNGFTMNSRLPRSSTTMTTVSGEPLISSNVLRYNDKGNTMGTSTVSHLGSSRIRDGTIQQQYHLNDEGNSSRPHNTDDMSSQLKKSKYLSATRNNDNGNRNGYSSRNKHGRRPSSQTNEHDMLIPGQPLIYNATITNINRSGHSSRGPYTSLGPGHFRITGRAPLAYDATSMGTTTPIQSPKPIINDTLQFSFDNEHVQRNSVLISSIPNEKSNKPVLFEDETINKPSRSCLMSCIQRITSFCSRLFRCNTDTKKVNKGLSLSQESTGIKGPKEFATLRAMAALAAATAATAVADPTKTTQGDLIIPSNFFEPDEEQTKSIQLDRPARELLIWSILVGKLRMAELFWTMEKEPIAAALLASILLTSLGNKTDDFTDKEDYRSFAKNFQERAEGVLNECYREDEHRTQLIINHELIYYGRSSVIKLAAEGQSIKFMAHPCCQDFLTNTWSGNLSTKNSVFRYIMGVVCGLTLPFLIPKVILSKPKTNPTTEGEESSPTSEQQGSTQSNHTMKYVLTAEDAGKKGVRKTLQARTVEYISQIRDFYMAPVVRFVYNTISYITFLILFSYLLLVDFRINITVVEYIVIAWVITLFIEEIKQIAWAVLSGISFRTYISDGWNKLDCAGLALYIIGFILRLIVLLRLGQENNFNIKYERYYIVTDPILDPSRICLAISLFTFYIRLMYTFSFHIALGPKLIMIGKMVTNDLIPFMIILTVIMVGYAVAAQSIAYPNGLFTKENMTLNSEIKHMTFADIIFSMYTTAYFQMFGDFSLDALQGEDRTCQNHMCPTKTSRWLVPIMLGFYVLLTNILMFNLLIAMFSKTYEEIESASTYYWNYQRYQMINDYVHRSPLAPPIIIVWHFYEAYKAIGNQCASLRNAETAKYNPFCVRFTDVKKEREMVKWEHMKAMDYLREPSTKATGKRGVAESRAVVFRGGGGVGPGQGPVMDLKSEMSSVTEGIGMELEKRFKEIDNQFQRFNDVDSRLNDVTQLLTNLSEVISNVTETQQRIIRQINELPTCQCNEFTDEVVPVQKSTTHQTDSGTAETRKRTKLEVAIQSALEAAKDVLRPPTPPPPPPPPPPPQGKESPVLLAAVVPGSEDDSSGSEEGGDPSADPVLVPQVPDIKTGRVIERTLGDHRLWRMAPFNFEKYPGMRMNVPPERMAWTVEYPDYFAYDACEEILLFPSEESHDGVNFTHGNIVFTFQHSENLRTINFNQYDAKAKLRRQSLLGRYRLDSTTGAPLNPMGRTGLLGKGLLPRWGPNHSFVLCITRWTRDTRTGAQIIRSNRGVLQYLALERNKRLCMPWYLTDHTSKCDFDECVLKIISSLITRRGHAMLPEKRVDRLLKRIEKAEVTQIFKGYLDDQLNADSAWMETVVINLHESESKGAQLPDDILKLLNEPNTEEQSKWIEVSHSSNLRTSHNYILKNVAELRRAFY

| SMILES | this work: EC50 (μM) Sm.TRPMPZQ (Sm.TRPMPZQ) | IC50 ([1]; after 24 h) [nM] | previous studies S. mansoni in vitro (activity grade) (S. mansoni [2]) | previous studies S. mansoni in vivo (activity grade, worm reduction) (S. mansoni [3]) | previous studies H. nana in vivo (activity grade, worm reduction) (H. nana) | EC50 (Sm.TRPMPZQ) | contraction of the protoscoleces (in words) ([1]; (±)-PZQ 1 μM, (R)-2 30 μM, (S)-2 100 μM, compared with vehicle control) | IC50 ([1]; 12 h postincubation) [nM] | effect of prolonged treatment on protoscoleces (in words) ([1]; after 24 h) | effect of low concentrations on motility (in words) ([1]; low concentrations, early time points (0.5 h)) | activity at Sm.TRPMPZQ (in words) (Sm.TRPMPZQ) | activity at cestode TRPMPZQ orthologs (in words) (Eg.TRPMPZQ) | concentrations activating both cestode TRPMPZQ representatives (Eg.TRPMPZQ) [µM] |
| --- | --- | --- | --- | --- | --- | --- | --- | --- | --- | --- | --- | --- | --- |
| O=C(c1cccnc1)N1CC(=O)N2CCc3ccccc3[C@H]2C1 [(S)-2] | inactive | ~30000 | 0 (“0” indicates no effect at ≤320 μM) | 0 | ++ | – | – | – | – | – | – | – | – |
| Nc1ccc(C(=O)N2CC(=O)N3CCc4ccccc4C3C2)cc1 (stereo not shown) [Compound 6] | – | – | ++ (“++” indicates a maximal effect ≤320 μM) | ++ | +++ | 11.6 µM and 12 µM | – | – | – | – | – | – | – |
| CNc1ccc(C(=O)N2CC(=O)N3CCc4ccccc4C3C2)cc1 (stereo not shown) [Compound 4] | inactive | – | 0 (“0” indicates no effect at ≤320 μM) | ++ | +++ | – | – | – | – | – | – | – | – |
| O=C(c1ccc([N+](=O)[O-])cc1)N1CC(=O)N2CCc3ccccc3C2C1 (stereo not shown) [Compound 3] | inactive | – | 0 (“0” indicates no effect at ≤320 μM) | + | ++ | – | – | – | – | – | – | – | – |
| O=C(C1CCCCC1)N1CC(=O)N2CCc3ccccc3[C@H]2C1 [(S)-PZQ, reference compound] | – | – | ++ (“++” indicates a maximal effect ≤320 μM) | + | ++ | – | – | – | – | – | – | – | – |
| O=C(C1CCCCC1)N1CC(=O)N2CCc3ccccc3[C@@H]2C1 [(R)-PZQ, reference compound] | – | – | +++ (“+++” indicates a maximal effect ≤3.2 μM) | +++ | +++ | – | – | – | – | – | – | – | – |
| O=C(C1CCCCC1)N1CC(=O)N2CCc3ccccc3C2C1 (stereo not shown) [Compound 1, praziquantel] | – | – | +++ (“+++” indicates a maximal effect ≤3.2 μM) | +++ | +++ | – | sustained contraction | ~100 | toxic | stimulated motility | – | – | – |
| O=C(c1cccnc1)N1CC(=O)N2CCc3ccccc3C2C1 (racemic) [(±)-2] | inactive | – | + (“+” indicates a less than maximal effect at ≤320 μM) | + | +++ | – | – | – | – | – | little activity | low-micromolar potency | – |
| O=C(C1CC1)N1CC(=O)N2CCc3ccccc3C2C1 (stereo not shown) [Compound 8] | inactive | – | 0 (“0” indicates no effect at ≤320 μM) | + | ++ | – | – | – | – | – | Little activity | clearly active | > 10 |
| N[C@H]1CC[C@@H](C(=O)N2CC(=O)N3CCc4ccccc4C3C2)CC1 (stereo partly shown) [Compound 7] | inactive | – | 0 (“0” indicates no effect at ≤320 μM) | 0 | + | – | – | – | – | – | lacked activity | only weakly active | – |
| CN(C)c1ccc(C(=O)N2CC(=O)N3CCc4ccccc4C3C2)cc1 (stereo not shown) [Compound 5] | inactive | – | 0 (“0” indicates no effect at ≤320 μM) | ++ | +++ | – | – | – | – | – | – | – | – |
| O=C(c1cccnc1)N1CC(=O)N2CCc3ccccc3[C@@H]2C1 [(R)-2] | – | ~3000 | 0 (“0” indicates no effect at ≤320 μM) | ++ | +++ | > 100 µM | – | – | – | – | – | – | – |
